In patent publication US20110313233A1, “DOWN-REGULATION OF COLD SHOCK PROTEINS FOR CANCER TREATMENT” (THE JOHNS HOPKINS UNIVERSITY, priority 2010, published 2011):

Test system: LNCaP cells
Test: Western blotting of Cyclin B1, Cyclin D1, γ-H2A.X, phosph-p53, p21
Assay type: cell-based
Settings: scrambled siRNA controls
Experimental: Western blotting: Twenty-five micrograms of protein were separated on 10% to 20% SDS-PAGE and transferred onto PVD filters (Millipore, Bedford, Mass.). Membranes were incubated with primary antibodies overnight at 4° C. followed by horseradish peroxidase-conjugated secondary antibodies, and developed with the Super Signal West Dura Extended Duration Substrate kit (Pierce). RBM3 antibody was generated in a rabbit against as peptide (Sigma-Gneosys, The Woodlands, Tex.). HSPA1A and CIRBP antibodies were obtained from Lifespan Biosciences (ProteinTech Group, Chicago, Ill.), phospho-Histone H2A.X antibody was obtained from Millipore. Other antibodies were purchased from Cell Signaling (Danvers, Mass.) and Santa Cruz (Santa Cruz, Calif.)
Prostate cancer cells PC-3 (FIG. 12A) and LNCaP (FIG. 12B) were transfected with 100 nM RBM3 or CIRBP SMARTpool siRNA. Forty-eight hours after transfection, cells were treated with 4 μg/ml cDDP or 1 μg/ml ADM for 4 h, and then moved back to normal medium for another 16 h. Cell lysates were subjected to Western blotting to detect Cyclin B1, Cyclin D1, phosph-histone H2A.X (Ser139) (γ-H2A.X), phosph-p53 (Ser15), and p21. Actin was used as a control for protein loading.

COc1cccc2c1C(=O)c1c(O)c3c(c(O)c1C2=O)C[C@@](O)(C(=O)CO)C[C@@H]3O[C@H]1C[C@H](N)[C@H](O)[C@H](C)O1 [ADM, adriamycin]
activation of p53 by drug treatment: activated

[NH2][Pt]([NH2])([Cl])[Cl] [cDDP, cisplatin]
activation of p53 by drug treatment: activated
